Source: patent US7405216B2, “Stable crystalline form of bifeprunox mesylate (7-[4-([1,1′-biphenyl]-3-ylmethyl)-1-piperazinyl]-2(3H)-benzoxazolone monomethanesulfonate)” (Solvay Pharmaceuticals, B.V., priority 2004, dated 2008)

Assay: Stability of the crystalline polymorphic forms of bifeprunox mesylate
Type: physicochemical
Settings: for thermodynamic stability of the polymorphic form: solid crystalline form, found during further investigations, monomethanesulfonate

conversion of the polymorphic form (even at high atmospheric humidity or higher temperature)	thermodynamic stability of the polymorphic form	SMILES
does not undergo conversion	more thermodynamically stable	O=c1[nH]c2cccc(N3CCN(Cc4cccc(-c5ccccc5)c4)CC3)c2o1 [polymorph α, 7-[4-([1,1′-biphenyl]-3-ylmethyl)-1-piperazinyl]-2(3H)-benzoxazolone monomethanesulfonate]
–	metastable	O=c1[nH]c2cccc(N3CCN(Cc4cccc(-c5ccccc5)c4)CC3)c2o1 [polymorph γ, 7-[4-([1,1′-biphenyl]-3-ylmethyl)-1-piperazinyl]-2(3H)-benzoxazolone monomethanesulfonate]
–	metastable	O=c1[nH]c2cccc(N3CCN(Cc4cccc(-c5ccccc5)c4)CC3)c2o1 [polymorph δ, 7-[4-([1,1′-biphenyl]-3-ylmethyl)-1-piperazinyl]-2(3H)-benzoxazolone monomethanesulfonate]
